Test results: publication PMC6394990, “Detailed characterization of the solution kinetics and thermodynamics of biotin, biocytin and HABA binding to avidin and streptavidin” (PLoS ONE, 2019)
Values joined by “and” are separate entries in the source; they are usually repeats but may differ in a detail not shown here. Equal values may be shown once. Read-outs that look alike come from different tables or passages of the source.

Target: T1, avidin (AV) (Gallus gallus, UniProt P02701)
T1 construct: purchased Calbiochem (La Jolla, CA)
T1 sequence (P02701 25-152): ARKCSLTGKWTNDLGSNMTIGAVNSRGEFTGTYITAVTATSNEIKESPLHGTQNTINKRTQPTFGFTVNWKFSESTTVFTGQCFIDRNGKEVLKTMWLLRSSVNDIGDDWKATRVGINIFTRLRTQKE
Assay: Stopped-flow association kinetics of dye-labeled biotin probes binding to avidin (F(t), rF(t); Arrhenius plots/global fitting)
Design: ln(k) / dS+ / dG+ / Eon for BFl / b of the line y = m1x+b1: unit not given here
Details: for k(average): k (full value)
Protocol: These reactions were carried out in a buffered solution of 10 mM Tris-HCl, 100 mM KCl, 2.5 mM MgCl2 and 1 mM CaCl2 at pH 8 and only AV-BcO reactions included pH 9 and 10. The concentrations, after mixing, were of 20 nM of dye-labeled B7 probe and 260 nM, 520 nM or 1040 nM of AV; and 200 nM, 300 nM, 400 nM or 800 nM of SAV at temperatures of 10, 15, 20 and 25°C. The deglycosylation of AV (for comparative association reactions) was carried out using the provided standard protocol with endoglycosidase H [47], both with and without incubation of a denaturant solution (2% SDS and 1M 2-mercaptoethanol).
The reactions were collected with the SF instrument, described previously. The fluorescence signal was collected through a 520 nm interference filter (Oriel Corp., Stratford, CT) with a detector time constant and SF dead time of 1 μs and 1 ms, respectively. The excitation light was provided by the Coherent Ar^+ ion laser (described above) at 488 nm with […] of incident power on the reaction cuvette. The laser source was followed by the photo-elastic modulator described above with the axis oriented 45^o with respect to the electric vector of the incident light and with the half-wave modulation (50 kHz) set for 488 nm excitation. The demodulation circuitry following the photomultiplier provided a DC(t) and a rectified AC(t) which were converted to digital data by a high-speed digitizer (PCI-5122) from National Instruments (Austin, TX) with 14-bit resolution and 100 MHz bandwidth, through channels 0 and 1. The data acquisition was controlled by LabVIEW (Vr 8) software at a collection rate of 6120 data points/second and stored in spreadsheets. The AC(t) and DC(t) data were baseline corrected before obtaining the signal ratio (Eq 4) as a function of time (ρt).
The constant AGain is the instrumental amplitude gain and was evaluated by solving ρ(t) using the known steady state anisotropy (rss) of the complexes which is equivalent to the r(t) at t = ∞; and H, obtained from the equivalent grating factor (G) for the filters and photo multiplier tubes in the SF. For the probes used in here G was 0.82 and H = (1-G)/(1+G) = 0.099. Knowing Again and H, the AC(t) and DC(t) signals can be solved for r(t) and F(t) (Eqs 4 and 5) and the normalized fluorescence, F¯(t) , and corrected fluorescence anisotropy, rF¯(t), were obtained when F¯(0) and rF¯(0) were scaled to 1 at t = 0.
The F¯(t) (Eq 6) is equivalent to (I||) + 2 (I⊥) and proportional to quantum yield (QYi), molar absorptivity (εi) and to the formation or disappearance of the emitting species Xi(t); and rF¯(t) including the steady state anisotropies (rss) of each fluorescent species (Eq 7).
The possible reaction models were discriminated by the squared residuals of the observed and calculated association traces of both fluorescence and anisotropy fluorescence signals, F¯(t) and rF¯(t) , respectively.

[1] = AV, average over the dye-labeled B7 probes, used for AV-B7

SMILES: O=C(O)CCCC[C@@H]1SC[C@@H]2NC(=O)N[C@@H]21 [B7, d-biotin]
- Eaon + (-∆H°) (AV-B): 36.5 ± 1.3 kcal/mol
- ∆G°ǂ + (-∆G°) (AV-B): 25.4 ± 1.0 kcal/mol
- ∆S°ǂ + (-∆S°) (AV-B): 41.9 ± 2.0 cal/mol°K
- ΔE = Ea^Forward-Ea^Backward (AV-B7, column 3 minus 4): -23.2 ± 2.2 kcal/mol and -23.2 kcal/mol
- ΔG° ^ǂ, Forward -ΔG° ^ǂ, Backward (AV-B7, column 3 minus 4): -20.0 ± 4.0 kcal/mol
- ΔS° ^ǂ, Forward -ΔS° ^ǂ, Backward (AV-B7, column 3 minus 4): -11.0 ± 2.5 cal/mol°K
- fold slower than 10^9 M^-1s^-1 (diffusion limited) (AV, 25°C): 54-714 X
- ΔG^ǂ, Forward [1]: 4.7 ± 0.3 kcal/mol and 4.7 kcal/mol
- ΔS^ǂ, Forward [1]: 32 cal/°K·mol
- ΔS^ǂ, Forward (AV, average over the dye-labeled B7 probes, used for AV-B7, listed as B): 33.0 ± 2.0 cal/°K·mol

SMILES: O=C(CCCC[C@@H]1SC[C@@H]2NC(=O)N[C@@H]21)NCCNC(=O)c1ccc(-c2c3ccc(=O)cc-3oc3cc(O)ccc23)c(C(=O)O)c1 [BFl, Biotin-4-fluorescein]
- kon fold slower than Green's 7 × 10^7 M^-1s^-1 (25°C and pH 8 vs 25°C and pH 5): 3.8 X
- fold by which the SPR kon (ref 20) is slower than the kon of the probe (AV): ~ 9 X
- kon (AV, 25°C, read-out: kon): ~1.9e+07 M⁻¹ s⁻¹
- Ea^Forward (AV, pH 8): 14.6 ± 0.6 kcal/mol
- ln(k) (AV, pH8, 10 (283.15 K)): 15.4
- k(average) (AV, pH8, 10 (283.15 K)): 4.86E+06
- kon (AV, pH8, 10 (283.15 K), k (scaled)): 4.9e+06 M⁻¹ s⁻¹
- ln(k) (AV, pH8, 15 (288.15 K)): 15.8
- k(average) (AV, pH8, 15 (288.15 K)): 7.60E+06
- kon (AV, pH8, 15 (288.15 K), k (scaled)): 7.6e+06 M⁻¹ s⁻¹
- ln(k) (AV, pH8, 20 (293.15 K)): 16.2
- k(average) (AV, pH8, 20 (293.15 K)): 1.07E+07
- kon (AV, pH8, 20 (293.15 K), k (scaled)): 1.07e+07 M⁻¹ s⁻¹
- ln(k) (AV, pH8, 25 (298.15 K)): 16.7
- k(average) (AV, pH8, 25 (298.15 K)): 1.85E+07
- kon (AV, pH8, 25 (298.15 K), k (scaled)): 1.85e+07 M⁻¹ s⁻¹
- ΔG^ǂ (AV, pH 8, forward): 4.2 ± 0.5 kcal/mol
- ΔS^ǂ (AV, pH 8, forward): 34.9 ± 2.0 cal/°K·mol
- slope (Arrhenius linear fit) (AV, ph8): -7342.9
- kcal/mol (from Arrhenius slope) (AV, ph8, the values are: Ea forward): 14.6 kcal/mol
- Eon for BFl (Enthalpy block, AV): 14.4
- kon (pH 8, AV, pH 8, 10°C, read-out: kon): 4.86e+06 ± 600000 M⁻¹ s⁻¹
- kon (pH 8, AV, pH 8, 15°C, read-out: kon): 7.6e+06 ± 2e+06 M⁻¹ s⁻¹
- kon (pH 8, AV, pH 8, 20°C, read-out: kon): 1.07e+07 ± 1.6e+06 M⁻¹ s⁻¹
- kon (pH 8, AV, pH 8, 25°C, read-out: kon): 1.85e+07 ± 2e+06 M⁻¹ s⁻¹
